Assay results: patent publication US5358951A, “Angiotensin II receptor blocking 2, 3, 6 substituted quinazolinones” (American Cyanamid Company, priority 1993, dated 1994)
Structures can show the parent of a compound that is named as a salt. Where two headings read alike, the source gives them in different places.

Target: T1, Angiotensin II Receptor (Bos taurus, UniProt P25104)
T1 construct: fresh adrenal glands received on crushed ice are cleaned of fatty tissues; from tissue; host or cells: beef adrenal cortex, microsomal membranes (100,000×g pellet)
T1 sequence (P25104 1-359): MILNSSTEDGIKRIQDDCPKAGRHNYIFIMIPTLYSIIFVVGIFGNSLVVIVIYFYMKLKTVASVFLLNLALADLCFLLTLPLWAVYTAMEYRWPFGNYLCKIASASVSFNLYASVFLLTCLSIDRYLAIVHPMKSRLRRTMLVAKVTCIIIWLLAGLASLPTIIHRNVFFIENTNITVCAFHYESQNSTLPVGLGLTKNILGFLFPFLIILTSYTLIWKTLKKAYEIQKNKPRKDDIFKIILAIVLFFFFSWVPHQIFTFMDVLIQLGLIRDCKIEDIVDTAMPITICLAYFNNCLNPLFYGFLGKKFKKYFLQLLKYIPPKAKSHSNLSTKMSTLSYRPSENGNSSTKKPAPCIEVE
Test: Receptor Binding Assay: displacement of [^125 I](Sar^1,Ile^8)AngII
Type: beef (adrenal cortex microsomal membranes)
Description: Beef adrenals are obtained from a local slaughter house (Maxwell-Cohen). [^125 […]. 2200 Ci/mmole, is purchased from Dupont (NEN®, Boston, Mass.). All unlabeled AngII analogs, Dimethylsulfoxide (DMSO), nucleotides, bovine serum albumin (BSA) are purchased from Sigma Chemical Co., St. Louis, Mo. U.S.A. […] Approximately sixteen (16) to twenty (20) beef adrenal glands are processed as follows: fresh adrenal glands received on crushed ice are cleaned of fatty tissues and the tough membranes encapsulating the glands are removed and discarded. The brownish tissue forming the adrenal cortex is scraped off and finely minced with scissors before homogenization. Care is taken to avoid contamination with medullary tissue during dissection. The scraped cortices are suspended in twenty volumes of an ice-cold buffer medium consisting of 10 mM Tris.HCl (pH 7.4 at 22° C.) and containing 1.0 mM EDTA and 0.2M sucrose. Unless otherwise indicated, all subsequent operations are done at 4° C. […] The homogenate is centrifuged first at low speed (3,000×g) for 10 min. […] This P2 pellet is discarded and the liquid phase is carefully decanted off in clean centrifuge tubes and recentrifuged at high speed (100,000×g) for 60 min. The translucent final pellet is harvested and combined in a small volume (20-50.0 ml) of 50.0 mM Tris.HCl buffer, pH 7.2. A 100 ul aliquot is withdrawn and the protein content of the preparation is determined by the Lowry's method (Lowry, O. H., Rosebrough, […]. and Randall, R. J., Protein measurement with Folin phenol reagent. J. Biol. Chem., 48, 265-275, 1951). The pelleted membrane is reconstituted in 50.0 mM Tris.HCl buffer containing 0.1 mM of phenylmethylsulfonyl fluoride (PMSF) to give approximately a protein concentration of 2.5 mg per ml of tissue suspension. […] In competition studies, experimental compounds are diluted in dimethylsulfoxide (DMSO) and added in 20 ul to wells before the introduction of tissue membranes. […] Assays are performed in triplicate. The wells are left undisturbed for 60 min. at room temperature. Following incubation, all wells are harvested at once with a Brandel® Harvester especially designed for a 96 well plate (Brandel® Biomedical Research & Development Labs. Inc., Gaithersburg, Md., U.S.A.). The filter discs are washed with 10×1.0 ml of cold 0.9% NaCl to remove unbound ligand. […] This method is routinely used. The filters are removed from the filter grid and counted in a Parkard® Cobra Gamma Counter for 1 min. (Packard Instrument Co., Downers Grove, Ill., U.S.A.). The binding data are analyzed by the non-linear interactive "LUNDON-1" program (LUNDON SOFTWARE Inc., Cleveland, Ohio U.S.A.).

[1] = continuation of Table I headed BIOLOGICAL DATA, read-out: Biological Data
[2] = read-out: Angiotensin II Receptor Binding IC50

| IC50 [1] | IC50 [2] | SMILES |
| --- | --- | --- |
|  | 54 nM | CCCCc1nc2ccc([C@@H]3C[C@H]4c5ccccc5CCN4O3)cc2c(=O)n1Cc1ccc(-c2ccccc2-c2nnn[nH]2)cc1 (relative stereo) [Example 63, Cis-2-Butyl-6-(1,5,6,10b-tetrahydro-2H-isoxazolo[3,2-a]isoquinolin-2-yl)-3-[[2'-(1H-tetrazol5-yl)[1,1'-biphenyl]-4-yl]methyl]-4(3H)-quinazolinone] |
|  | 94 nM | CCCCc1nc2ccc(C3(C)CC4c5ccccc5CCN4O3)cc2c(=O)n1Cc1ccc(-c2ccccc2-c2nnn[nH]2)cc1 (stereo not drawn) [Example 64, Cis and Trans-2-Butyl-6-(1,5,6,10b-tetrahydro-2-methyl-2H-isoxazolo[3,2-a]isoquinolin-2-yl)-3-[[2'-(1H-tetrazol-5-yl][1,1'-biphenyl]-4-yl]methyl]-4(3H)-quinazolinone] |

Further lines, the compound ahead of its results:

| SMILES | IC50 [1] | IC50 [2] |
| --- | --- | --- |
| CCCCc1nc2ccc([C@@]3(C)C[C@@H]4CCCN4O3)cc2c(=O)n1Cc1ccc(-c2ccccc2-c2nnn[nH]2)cc1 (relative stereo) [Example 73, Cis-2-Butyl-6-(hexahydro-2-methylpyrrolo[1,2-b]isoxazol-2-yl)-3-[[2'-(1H-(tetrazol-5-yl)[1,1'-biphenyl-4-yl]methyl]-4(3H)-quinazolinone sodium salt] | 31 nM |  |
| CCCCc1nc2ccc([C@@]3(CC)C[C@@H]4CCCN4O3)cc2c(=O)n1Cc1ccc(-c2ccccc2-c2nnn[nH]2)cc1 (relative stereo) [Example 71, Cis-2-butyl-6-(2-ethylhexahydropyrrolo[1,2b]isoxazol-2-yl)-3-[[2'-[1-(1H-tetrazol-5-yl)][1,1'-biphenyl]-4-yl]methyl]-4(3H)-quinazolinone] |  | 63 nM |
| CCCCc1nc2ccc(C3(C(=O)OC)CC4CCCN4O3)cc2c(=O)n1Cc1ccc(-c2ccccc2-c2nnn[nH]2)cc1 (mixture of isomers) [Example 78, Trans(+/-)-Methyl-2-[2-butyl-3,4-dihydro-4-oxo-3-[[2'-(1H-tetrazol-5-yl)[1,1'-biphenyl]-4-yl]methyl-6-quinazolinyl]hexahydropyrrolo[1,2-b]isoxazole-2-carboxylate] | 144 nM |  |
